Where two headings read alike, the source gives them in different places.
Key:
House Fly = assay: Adult House Fly Assay (AhsF), feeding on compound-soaked dental wicks, 24 h mortality; design: species or system Musca domestica; details: 24 h, read-out: Potency (24 h EC50 μM)
Method: Adult Stable or House Fly Assay (ASF, AhsF). This assay is conducted essentially as described in White, W. H., S. M. Bauer, X. Zhao et al., Comparison of in vitro and in vivo ectoparasiticide activity of an experimental benzimidazole-carbamate with permethrin and amitraz, J. Med. Entomol. 42, 207-211 (2005); and White, W. H., C. M. McCoy, J. A. Meyer et al., Knockdown and mortality comparisons among spinosad-, imidacloprid-, and methomyl-containing baits against susceptible Musca domestica (Diptera: Muscidae) under laboratory conditions, J. Econ. Entomol. 100, 155-163 (2007).
Test material is formulated in DMSO at 10 mM. Doubling dilutions in like solvent are made to yield 10 testing levels. Materials are diluted in either bovine serum (stable flies) or 5% glucose solution (house flies) to obtain desired exposure concentrations from 200-0.39 μM. Approximately 3 ml of diluted test material is placed into a test tube (n=3 per test level) and a dental wick is used to absorb fluid. One dental wick is placed into a small weigh boat inside of a 100 mm Petri dish. Approximately 10 mixed-sex adult flies are anesthetized using carbon dioxide and counted into each dish. Dishes are incubated at 27° C. and 50-70% relative humidity. Flies recover from anesthesia and feed on compound-soaked dental wicks. After 24 h, live/dead flies are enumerated. Nonlinear regression is used to model dose-mortality relationship and obtain relative potency (LD50) data compared to contemporaneous controls (solvent-only or permethrin).

[1] = system: adult cat flea, Ctenocephalides felis; details: dogs, historical data, not contemporaneous controls, cited from earlier work

## Spinosad
House Fly; adult house flies, 5% glucose solution
  EC50: 12 µM
[1]; Day 7
  geometric mean percent flea reduction, Day 7: 100%
[1]; Day 14
  geometric mean percent flea reduction, Day 14: 99.6%
[1]; Day 21
  geometric mean percent flea reduction, Day 21: 100%
[1]; Day 30
  geometric mean percent flea reduction, Day 30: 97.8%
[1]; Day 37
  geometric mean percent flea reduction, Day 37: 91.1%
[1]; Knockdown
  geometric mean percent flea reduction, Knockdown: 100%

## N#Cc1nn(-c2c(Cl)cc(C(F)(F)F)cc2Cl)c(N)c1[S+]([O-])C(F)(F)F (centres unmarked) [Fipronil, reference compound]
House Fly; Musca domestica
  EC50: 0.97 µM

— patent US20100286076A1, “ECTOPARASITICIDAL METHODS AND FORMULATIONS” (priority 2009, published 2010)
